From PubChem BioAssay AID1963984 (Molecular Pharmacology Branch, DTP, NCI, 2024)

Tested on: 233499-124-R-J3-PDC spheroids with HUVEC/MSC, viability
Test: Anticancer human tumor 233499-124-R-J3-PDC patient-derived colon adenocarcinoma cell line growth inhibition [PI3K]
Settings: for IC50: curve of first compound; for viability, T/C: stronger effect = lower value; active = viability on the fitted dose curve at most 10% of control; inactive = the rest
Outline: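 Complex 3D spheroids (cancer cells + endothelial HUVEC + mesenchymal stem cells); drug pairs of targeted agent x inavolisib/alpelisib/duvelisib/copanlisib; half-log series from ~Cmax, max 10 microM if Cmax unknown; endpoint viability.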

[1] = second compound 0.0316 µM, first compound 0.0316 µM
[2] = second compound 0.0316 µM, first compound 0.1 µM
[3] = second compound 0.0316 µM, first compound 0.316 µM
[4] = second compound 0.0316 µM, first compound 1 µM
[5] = second compound 0.0316 µM, first compound 3.16 µM
[6] = second compound 0.0316 µM, first compound 10 µM
[7] = second compound 0.1 µM, first compound 0.0316 µM
[8] = second compound 0.1 µM, first compound 0.1 µM
[9] = second compound 0.1 µM, first compound 0.316 µM
[10] = second compound 0.1 µM, first compound 1 µM
[11] = second compound 0.1 µM, first compound 3.16 µM
[12] = second compound 0.1 µM, first compound 10 µM
[13] = second compound 0.316 µM, first compound 0.0316 µM
[14] = second compound 0.316 µM, first compound 0.1 µM
[15] = second compound 0.316 µM, first compound 0.316 µM
[16] = second compound 0.316 µM, first compound 1 µM
[17] = second compound 0.316 µM, first compound 3.16 µM
[18] = second compound 0.316 µM, first compound 10 µM
[19] = second compound 1 µM, first compound 0.0316 µM
[20] = second compound 1 µM, first compound 0.1 µM
[21] = second compound 1 µM, first compound 0.316 µM
[22] = second compound 1 µM, first compound 1 µM
[23] = second compound 1 µM, first compound 3.16 µM
[24] = second compound 1 µM, first compound 10 µM
[25] = second compound 3.16 µM, first compound 0.0316 µM
[26] = second compound 3.16 µM, first compound 0.1 µM
[27] = second compound 3.16 µM, first compound 0.316 µM
[28] = second compound 3.16 µM, first compound 1 µM
[29] = second compound 3.16 µM, first compound 3.16 µM
[30] = second compound 3.16 µM, first compound 10 µM
[31] = second compound 10 µM, first compound 0.0316 µM
[32] = second compound 10 µM, first compound 0.1 µM
[33] = second compound 10 µM, first compound 0.316 µM
[34] = second compound 10 µM, first compound 1 µM
[35] = second compound 10 µM, first compound 3.16 µM
[36] = second compound 10 µM, first compound 10 µM
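Also: spheroids exposed to agents for seven days before readout.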
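For viability, T/C in this document: percent viability relative to DMSO vehicle control taken as 100%.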

C=CC(=O)N1CCN(c2nc(=O)n(-c3c(C)ccnc3C(C)C)c3nc(-c4c(O)cccc4F)c(F)cc23)C(C)C1 (stereo not given) + CC(Nc1ncnc2nc[nH]c12)c1cc2cccc(Cl)c2c(=O)n1-c1ccccc1
> 10 µM: IC50 (second compound 0.0316 µM) | IC50 (second compound 0.1 µM) | IC50 (second compound 0.316 µM) | IC50 (second compound 1 µM) | IC50 (second compound 3.16 µM) | IC50 (second compound 10 µM)
inactive: viability, T/C [1] 103% | viability, T/C [2] 89.2% | viability, T/C [3] 81.2% | viability, T/C [4] 84.3% | viability, T/C [5] 85.8% | viability, T/C [6] 91.8% | viability, T/C [7] 91% | viability, T/C [8] 87.4% | viability, T/C [9] 92% | viability, T/C [10] 79.8% | viability, T/C [11] 88.1% | viability, T/C [12] 96.8% | viability, T/C [13] 81.1% | viability, T/C [14] 86.4% | viability, T/C [15] 87.4% | viability, T/C [16] 88.8% | viability, T/C [17] 90% | viability, T/C [18] 82.3% | viability, T/C [19] 96.6% | viability, T/C [20] 89.4% | viability, T/C [21] 87.8% | viability, T/C [22] 88.4% | viability, T/C [23] 92.9% | viability, T/C [24] 93.3% | viability, T/C [25] 91.3% | viability, T/C [26] 90.9% | viability, T/C [27] 78.3% | viability, T/C [28] 79.7% | viability, T/C [29] 71.6% | viability, T/C [30] 89% | viability, T/C [31] 80.9% | viability, T/C [32] 82.5% | viability, T/C [33] 81.8% | viability, T/C [34] 97.3% | viability, T/C [35] 69.4% | viability, T/C [36] 88.3%

CC(C)NCC(C(=O)N1CCN(c2ncnc3c2C(C)CC3O)CC1)c1ccc(Cl)cc1 (stereo not given) + CC(Nc1ncnc2nc[nH]c12)c1cc2cccc(Cl)c2c(=O)n1-c1ccccc1
> 10 µM: IC50 (second compound 0.0316 µM) | IC50 (second compound 0.1 µM) | IC50 (second compound 0.316 µM) | IC50 (second compound 1 µM) | IC50 (second compound 3.16 µM) | IC50 (second compound 10 µM)
inactive: viability, T/C [1] 86.1% | viability, T/C [2] 100% | viability, T/C [3] 94.8% | viability, T/C [4] 94.8% | viability, T/C [5] 77.1% | viability, T/C [6] 74.5% | viability, T/C [7] 93.3% | viability, T/C [8] 96.7% | viability, T/C [9] 77.6% | viability, T/C [10] 83.8% | viability, T/C [11] 110% | viability, T/C [12] 87.4% | viability, T/C [13] 95.7% | viability, T/C [14] 102% | viability, T/C [15] 95.8% | viability, T/C [16] 87.8% | viability, T/C [17] 86.9% | viability, T/C [18] 71.9% | viability, T/C [19] 91.1% | viability, T/C [20] 88.3% | viability, T/C [21] 88.1% | viability, T/C [22] 106% | viability, T/C [23] 82.1% | viability, T/C [24] 65.2% | viability, T/C [25] 91% | viability, T/C [26] 93.6% | viability, T/C [27] 96.9% | viability, T/C [28] 85.7% | viability, T/C [29] 81.1% | viability, T/C [30] 77.5% | viability, T/C [31] 78% | viability, T/C [32] 89.9% | viability, T/C [33] 87.4% | viability, T/C [34] 68.8% | viability, T/C [35] 99.5% | viability, T/C [36] 88%

CCN1CCN(Cc2ccc(Nc3ncc(F)c(-c4cc(F)c5nc(C)n(C(C)C)c5c4)n3)nc2)CC1 + CC(Nc1ncnc2nc[nH]c12)c1cc2cccc(Cl)c2c(=O)n1-c1ccccc1
0.214 µM: IC50 (second compound 3.16 µM)
0.916 µM: IC50 (second compound 0.0316 µM)
0.788 µM: IC50 (second compound 0.316 µM)
0.193 µM: IC50 (second compound 10 µM)
inactive: viability, T/C (second compound 0.0316 µM, first compound 0.00316 µM) 102% | viability, T/C (second compound 0.0316 µM, first compound 0.01 µM) 93.5% | viability, T/C [1] 83.2% | viability, T/C [2] 70.1% | viability, T/C [3] 61.5% | viability, T/C [4] 48.5% | viability, T/C (second compound 0.1 µM, first compound 0.00316 µM) 101% | viability, T/C (second compound 0.1 µM, first compound 0.01 µM) 108% | viability, T/C [7] 86.7% | viability, T/C [8] 73.8% | viability, T/C [9] 61.4% | viability, T/C [10] 47% | viability, T/C (second compound 0.316 µM, first compound 0.00316 µM) 97.1% | viability, T/C (second compound 0.316 µM, first compound 0.01 µM) 87.3% | viability, T/C [13] 85.4% | viability, T/C [14] 84.2% | viability, T/C [15] 66.3% | viability, T/C [16] 45.2% | viability, T/C (second compound 1 µM, first compound 0.00316 µM) 104% | viability, T/C (second compound 1 µM, first compound 0.01 µM) 90.8% | viability, T/C [19] 76% | viability, T/C [20] 83.8% | viability, T/C [21] 54.3% | viability, T/C [22] 50.8% | viability, T/C (second compound 3.16 µM, first compound 0.00316 µM) 80.2% | viability, T/C (second compound 3.16 µM, first compound 0.01 µM) 79.2% | viability, T/C [25] 95.2% | viability, T/C [26] 72.6% | viability, T/C [27] 39% | viability, T/C [28] 32.8% | viability, T/C (second compound 10 µM, first compound 0.00316 µM) 75.9% | viability, T/C (second compound 10 µM, first compound 0.01 µM) 73.7% | viability, T/C [31] 90.8% | viability, T/C [32] 57% | viability, T/C [33] 51% | viability, T/C [34] 38.4%
0.963 µM: IC50 (second compound 1 µM)
0.832 µM: IC50 (second compound 0.1 µM)

Cn1ncc(Cl)c1-c1cc(C(=O)NC(CN)Cc2cccc(F)c2)sc1Cl (stereo not given) + CC(Nc1ncnc2nc[nH]c12)c1cc2cccc(Cl)c2c(=O)n1-c1ccccc1
5.24 µM: IC50 (second compound 3.16 µM)
5.3 µM: IC50 (second compound 10 µM)
3.13 µM: IC50 (second compound 0.316 µM)
4.73 µM: IC50 (second compound 0.1 µM)
3.2 µM: IC50 (second compound 0.0316 µM)
4.11 µM: IC50 (second compound 1 µM)
inactive: viability, T/C [1] 70.5% | viability, T/C [2] 105% | viability, T/C [3] 60.3% | viability, T/C [4] 91.5% | viability, T/C [5] 50.2% | viability, T/C [6] 26.3% | viability, T/C [7] 86.4% | viability, T/C [8] 108% | viability, T/C [9] 94.2% | viability, T/C [10] 58.2% | viability, T/C [11] 75.7% | viability, T/C [12] 24.7% | viability, T/C [13] 115% | viability, T/C [14] 107% | viability, T/C [15] 70.6% | viability, T/C [16] 62.7% | viability, T/C [17] 63.6% | viability, T/C [18] 28.7% | viability, T/C [19] 94.8% | viability, T/C [20] 90.9% | viability, T/C [21] 86.1% | viability, T/C [22] 73.5% | viability, T/C [23] 59.6% | viability, T/C [24] 24.6% | viability, T/C [25] 97% | viability, T/C [26] 98.6% | viability, T/C [27] 79.1% | viability, T/C [28] 106% | viability, T/C [29] 64.5% | viability, T/C [30] 31.5% | viability, T/C [31] 94.8% | viability, T/C [32] 92% | viability, T/C [33] 108% | viability, T/C [34] 65.2% | viability, T/C [35] 69.6% | viability, T/C [36] 32.4%

Cn1nccc1Nc1nccc(-c2ccn(C(CO)c3ccc(Cl)c(F)c3)c(=O)c2)n1 (stereo not given) + CC(Nc1ncnc2nc[nH]c12)c1cc2cccc(Cl)c2c(=O)n1-c1ccccc1
inactive: viability, T/C [1] 108% | viability, T/C [2] 104% | viability, T/C [3] 110% | viability, T/C [4] 88% | viability, T/C [5] 89% | viability, T/C [6] 70.8% | viability, T/C [7] 103% | viability, T/C [8] 95.6% | viability, T/C [9] 91.3% | viability, T/C [10] 65.1% | viability, T/C [11] 92.8% | viability, T/C [12] 62.3% | viability, T/C [13] 108% | viability, T/C [14] 89.9% | viability, T/C [15] 90.4% | viability, T/C [16] 70.8% | viability, T/C [17] 78.1% | viability, T/C [18] 68.6% | viability, T/C [19] 91.7% | viability, T/C [20] 72.6% | viability, T/C [21] 72.9% | viability, T/C [22] 86.3% | viability, T/C [23] 81.3% | viability, T/C [24] 69% | viability, T/C [25] 87% | viability, T/C [26] 87.9% | viability, T/C [27] 74.5% | viability, T/C [28] 89.8% | viability, T/C [29] 66.3% | viability, T/C [30] 77.6% | viability, T/C [31] 76.8% | viability, T/C [32] 83.8% | viability, T/C [33] 98% | viability, T/C [34] 69.9% | viability, T/C [35] 76.4% | viability, T/C [36] 51.9%
> 10 µM: IC50 (second compound 0.0316 µM) | IC50 (second compound 0.1 µM) | IC50 (second compound 0.316 µM) | IC50 (second compound 1 µM) | IC50 (second compound 3.16 µM) | IC50 (second compound 10 µM)
